Test [1] addresses T1, mTOR (Homo sapiens, UniProt P42345).
T1 construct: FLAG; made in house
Put plainly: In Vitro mTOR Kinase Assay (Echo), Test (a)(ii). In kind it is biochemical. Conditions: table of enzyme assay Test (a)(ii); read-out: Test (a)(ii) IC50. An outline of the steps:
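Enzyme: HEK293-expressed, FLAG-purified mTOR C-terminal fragment (aa 1362-2549). Rxn 2 h RT with biotinylated peptide, stopped with EDTA 50 mM/BSA/Tris pH 7.4. Detection: T389 phospho-antibody AlphaScreen, 680 nm excitation. IC50.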

Test [2] has as its target T1, mTOR. The test can be described thus: mTOR Kinase Assay (Echo). In kind it is biochemical.

The text below walks through data of patent US20090018134A1, “Compounds - 945” (AstraZeneca AB, priority 2007, published 2009).

T1 sequence (P42345 1362-2549): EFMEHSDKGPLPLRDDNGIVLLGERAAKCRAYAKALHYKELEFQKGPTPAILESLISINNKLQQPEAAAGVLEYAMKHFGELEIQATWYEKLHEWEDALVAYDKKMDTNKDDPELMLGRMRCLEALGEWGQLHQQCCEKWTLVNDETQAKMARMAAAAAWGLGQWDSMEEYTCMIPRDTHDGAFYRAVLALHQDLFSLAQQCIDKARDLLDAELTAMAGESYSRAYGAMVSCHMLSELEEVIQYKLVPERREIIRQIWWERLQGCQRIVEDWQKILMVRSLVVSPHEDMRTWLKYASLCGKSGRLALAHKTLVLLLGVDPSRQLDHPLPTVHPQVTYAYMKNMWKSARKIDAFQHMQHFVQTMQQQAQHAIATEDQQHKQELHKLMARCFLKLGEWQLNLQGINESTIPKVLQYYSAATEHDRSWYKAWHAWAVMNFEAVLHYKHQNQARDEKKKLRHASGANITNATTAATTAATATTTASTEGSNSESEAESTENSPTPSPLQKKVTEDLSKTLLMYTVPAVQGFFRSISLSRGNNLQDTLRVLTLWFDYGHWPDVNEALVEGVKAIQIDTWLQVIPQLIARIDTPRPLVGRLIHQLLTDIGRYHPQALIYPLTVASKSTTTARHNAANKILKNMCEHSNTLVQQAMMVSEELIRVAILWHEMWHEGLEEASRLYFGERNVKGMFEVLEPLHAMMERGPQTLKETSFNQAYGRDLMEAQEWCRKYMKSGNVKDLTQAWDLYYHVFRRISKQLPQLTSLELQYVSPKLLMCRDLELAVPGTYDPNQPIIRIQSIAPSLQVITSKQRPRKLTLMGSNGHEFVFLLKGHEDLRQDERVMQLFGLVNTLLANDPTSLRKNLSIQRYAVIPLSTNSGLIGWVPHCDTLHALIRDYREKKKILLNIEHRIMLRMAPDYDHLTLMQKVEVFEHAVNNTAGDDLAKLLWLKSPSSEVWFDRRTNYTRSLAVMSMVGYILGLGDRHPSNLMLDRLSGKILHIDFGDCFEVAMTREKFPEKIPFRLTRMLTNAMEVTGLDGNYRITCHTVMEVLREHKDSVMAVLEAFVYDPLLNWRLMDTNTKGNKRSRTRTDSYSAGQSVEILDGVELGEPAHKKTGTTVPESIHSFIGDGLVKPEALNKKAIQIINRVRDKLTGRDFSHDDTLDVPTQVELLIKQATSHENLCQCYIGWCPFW

Consider `O=C(Nc1ccc(-c2nc(N3CCOCC3)cc(C3(S(=O)(=O)c4ccc(F)cc4)CC3)n2)cc1)NC1CC1` [Example 36al, 3-cyclopropyl-1-[4-[4-[1-(4-fluorophenyl)sulfonylcyclopropyl]-6-morpholin-4-ylpyrimidin-2-yl]phenyl]urea], for which the IC50 (as a rule, the concentration needed to halve the response being measured) on mTOR [1] was determined as 16.1 nM; at mTOR [2], 18.7 nM.
`N#CCCNC(=O)Nc1ccc(-c2nc(N3CCOCC3)cc(C3(S(=O)(=O)c4ccc(F)cc4)CC3)n2)cc1` [Example 36am, 3-(2-cyanoethyl)-1-[4-[4-[1-(4-fluorophenyl)sulfonylcyclopropyl]-6-morpholin-4-ylpyrimidin-2-yl]phenyl]urea]: the figures for the IC50 on mTOR [1] and against mTOR [2] were 25.9 nM and 27.7 nM, respectively.
Regarding `Cc1cnc(NC(=O)Nc2ccc(-c3nc(N4CCOC[C@@H]4C)cc(C4(S(C)(=O)=O)CC4)n3)cc2)cn1` [Example 36az, 3-[4-[4-[(3S)-3-methylmorpholin-4-yl]-6-(1-methylsulfonylcyclopropyl)pyri-midin-2-yl]phenyl]-1-(5-methylpyrazin-2-yl)urea], the IC50 was 1.05 nM on mTOR [1] and 1.49 nM at mTOR [2].
As to `C[C@H]1COCCN1c1cc(C2(S(C)(=O)=O)CC2)nc(-c2ccc(NC(=O)Nc3ncco3)cc2)n1` [Example 36ba, 1-[4-[4-[(3S)-3-methylmorpholin-4-yl]-6-(1-methylsulfonylcyclopropyl)pyri-midin-2-yl]phenyl]-3-(1,3-oxazol-2-yl)urea], the IC50 stood at 1.67 nM at mTOR [1] and 3.12 nM against mTOR [2].
With `C[C@H]1COCCN1c1cc(C2(S(C)(=O)=O)CC2)nc(-c2ccc(NC(=O)NCCCO)cc2)n1` [Example 36bb, 3-(3-hydroxypropyl)-1-[4-[4-[(3S)-3-methylmorpholin-4-yl]-6-(1-methylsulfonylcyclopropyl)pyri-midin-2-yl]phenyl]urea], the IC50 on mTOR [1] turned out to be 5.13 nM; against mTOR [2], 20.5 nM.
For `C[C@H]1COCCN1c1cc(C2(S(=O)(=O)c3ccccc3)CC2)nc(-c2ccc(NC(=O)NC3CC3)cc2)n1` [Example 36bc, 1-[4-[4-[1-(benzenesulfonyl)cyclopropyl]-6-[(3S)-3-methylmorpholin-4-yl]pyrimidin-2-yl]phenyl]-3-cyclopropylurea] the same measures were 2.85 nM and 2.05 nM.
Take `CCNC(=O)Nc1ccc(-c2nc(N3CCOC[C@@H]3C)cc(C3(S(=O)(=O)c4ccccc4)CC3)n2)cc1` [Example 36bg, 3-[4-[4-[1-(benzenesulfonyl)cyclopropyl]-6-[(3S)-3-methylmorpholin-4-yl]pyrimidin-2-yl]phenyl]-1-ethylurea]: the IC50 was found to be 1.89 nM on mTOR [1] and 0.922 nM against mTOR [2].
For `C[C@H]1COCCN1c1cc(C2(S(=O)(=O)c3ccccc3)CC2)nc(-c2ccc(NC(=O)NCCO)cc2)n1` [Example 36bh, 1-[4-[4-[1-(benzenesulfonyl)cyclopropyl]-6-[(3S)-3-methylmorpholin-4-yl]pyrimidin-2-yl]phenyl]-3-(2-hydroxyethyl)urea] the same measures were 1.37 nM and 1.21 nM.
Consider `CNC(=O)Nc1ccc(-c2nc(N3CCOC[C@@H]3C)cc(C3(S(=O)(=O)c4ccccc4)CC3)n2)cc1` [Example 36bj, 1-[4-[4-[1-(benzenesulfonyl)cyclopropyl]-6-[(3S)-3-methylmorpholin-4-yl]pyrimidin-2-yl]phenyl]-3-methylurea], for which the IC50 was 1.06 nM at mTOR [1] and 0.621 nM against mTOR [2].
With `C[C@H]1COCCN1c1cc(C2(S(=O)(=O)c3ccccc3)CC2)nc(-c2ccc(NC(=O)NCCCO)cc2)n1` [Example 36bl, 1-[4-[4-[1-(benzenesulfonyl)cyclopropyl]-6-[(3S)-3-methylmorpholin-4-yl]pyrimidin-2-yl]phenyl]-3-(3-hydroxypropyl)urea], the IC50 at mTOR [1] is 3.33 nM; at mTOR [2], 2.08 nM.
For the compound `C[C@H]1COCCN1c1cc(C2(S(=O)(=O)c3ccccc3)CCC2)nc(-c2ccc(NC(=O)NC3CC3)cc2)n1` [Example 36bs, 1-[4-[4-[1-(benzenesulfonyl)cyclobutyl]-6-[(3S)-3-methylmorpholin-4-yl]pyrimidin-2-yl]phenyl]-3-cyclopropylurea], the IC50 at mTOR [1] stood at 2.64 nM; against mTOR [2] it was 1.61 nM.
With `C[C@H]1COCCN1c1cc(C2(S(=O)(=O)c3ccccc3)CCC2)nc(-c2ccc(NC(=O)NCCO)cc2)n1` [Example 36bt, 1-[4-[4-[1-(benzenesulfonyl)cyclobutyl]-6-[(3S)-3-methylmorpholin-4-yl]pyrimidin-2-yl]phenyl]-3-(2-hydroxyethyl)urea], the IC50 on mTOR [1] was found to be 1.88 nM; against mTOR [2], 1.05 nM.
For `CNC(=S)Nc1ccc(-c2nc(N3CCOC[C@@H]3C)cc(C3(S(=O)(=O)c4ccccc4)CC3)n2)cc1` [Example 37ab, 1-[4-[4-[1-(benzenesulfonyl)cyclopropyl]-6-[(3S)-3-methylmorpholin-4-yl]pyrimidin-2-yl]phenyl]-3-methylthiourea], the IC50 at mTOR [1] worked out at 4.88 nM; at mTOR [2] it was 3 nM.
For `C[C@H]1COCCN1c1cc(C2(S(=O)(=O)c3ccccc3)CC2)nc(-c2ccc(NC(=S)NCc3ncc[nH]3)cc2)n1` [Example 37ac, 1-[4-[4-[1-(benzenesulfonyl)cyclopropyl]-6-[(3S)-3-methylmorpholin-4-yl]pyrimidin-2-yl]phenyl]-3-(1H-imidazol-2-ylmethyl)thiourea] the same measures were 43.8 nM and 29.8 nM.
On to `C[C@H]1COCCN1c1cc(C2(S(=O)(=O)CCCO)CC2)nc(-c2ccc(NC(=S)NC3CC3)cc2)n1` [Example 37h, 3-cyclopropyl-1-[4-[4-[1-(3-hydroxypropylsulfonyl)cyclopro-pyl]-6-[(3S)-3-methylmorpholin-4-yl]pyrimidin-2-yl]phenyl]thiourea], for which the IC50 was 19.8 nM on mTOR [1] and 13.2 nM against mTOR [2].
For `C[C@H]1COCCN1c1cc(C2(S(=O)(=O)CCCO)CC2)nc(-c2ccc(NC(=S)NCCO)cc2)n1` [Example 37i, 3-(2-hydroxyethyl)-1-[4-[4-[1-(3-hydroxypropylsulfonyl)cyclopro-pyl]-6-[(3S)-3-methylmorpholin-4-yl]pyrimidin-2-yl]phenyl]thiourea] the same measures were 3.79 nM and 3.06 nM.
For `CCNC(=S)Nc1ccc(-c2nc(N3CCOC[C@@H]3C)cc(C3(S(=O)(=O)CCCO)CC3)n2)cc1` [Example 37k, 1-ethyl-3-[4-[4-[1-(3-hydroxypropylsulfonyl)cyclopro-pyl]-6-[(3S)-3-methylmorpholin-4-yl]pyrimidin-2-yl]phenyl]thiourea] the same measures were 16.1 nM and 11.4 nM.
With `C[C@H]1COCCN1c1cc(C2(S(=O)(=O)c3ccccc3)CC2)nc(-c2ccc(NC(=S)NCCC#N)cc2)n1` [Example 37y, 1-[4-[4-[1-(benzenesulfonyl)cyclopropyl]-6-[(3S)-3-methylmorpholin-4-yl]pyrimidin-2-yl]phenyl]-3-(2-cyanoethyl)thiourea], the IC50 was determined as 6.86 nM at mTOR [1] and 5.53 nM on mTOR [2].
For `C[C@H]1COCCN1c1cc(C2(S(=O)(=O)c3ncc[nH]3)CC2)nc(-c2ccc(NC(=O)NC3CC3)cc2)n1` [Example 40a, 3-cyclopropyl-1-[4-[4-[1-(1H-imidazol-2-ylsulfonyl)cyclopropyl]-6-[(3S)-3-methylmorpholin-4-yl]pyrimidin-2-yl]phenyl]urea] the same measures were 2.21 nM and 6.49 nM.
